# “Also recorded” adds a separate entry of the source.
# Key:
# [1] = tested on: 85 receptors (CEREP High-throughput profile+4 steroid receptors+Cannabinoid type 2 receptor); assay: CEREP High-throughput binding profile (85 receptors)
# From the text: The CEREP High-throughput profile consists of a broad collection of 80 transmembrane and soluble receptors, ion channels and G-Protein coupled receptors.
# [2] = tested on: THC dependent mice; assay: Precipitated withdrawal in mice chronically treated with THC; format: in vivo; conditions: mice repeatedly treated with THC 20 mg/kg ip; Rimo 10 mg/kg ip; 3pMBP […] per os
# Experimental: The chronic THC regimen (20 mg/kg, twice a day) used in these experiments has been chosen because it mimics heavy marijuana use (Cook et al., 1998) and is considered as a model of cannabinoids dependence in mice (Cutando et al., 2013; Hutcheson et al., 1998). […] From day 1 to 4-5, mice were injected ip with vehicle or THC (20 mg/kg in NaCl 0.9% containing 2% ethanol and 2% Tween80, 10 ml/kg) twice a day. […] All the other animals received the administration of the respective vehicle. […] The dose and schedule of administration of rimonabant chosen for this study has been commonly used to precipitate THC withdrawal in mice (Cook et al. 1998, Hutcheson et al., 1998, Huang et al., 2009).
# For the measure of precipitated withdrawal, mice were placed in a novel home cage and a video camera positioned in front of each cage recorded animals' behaviors. Scoring was performed for 1 minute every 5 min-period. Two withdrawal signs were analyzed: paw tremors and head shaking, since they are the most common signs of THC withdrawal observed in mice (Cook et al. 1998, Hutcheson et al., 1998, Lichtman et al., 2001).
# [3] = tested on: THC-induced catalepsy; assay: THC-induced catalepsy (catalepsy bar test); format: in vivo; conditions: per os 3 h before THC 10 mg/kg; mice
# Experimental: Measuring of the catalepsy induced by THC was started 30 min after THC injection.
# Catalepsy was measured by the catalepsy bar test. The forepaws of mice were placed on a bar fixed horizontally at 3.5 cm from the bench surface. The latency for moving from the bar was recorded with a cut-off time fixed at 420 s (7 min). Each mouse was submitted to a maximum of four consecutive trials. The maximum latency shown at one trial was selected as the measure of catalepsy.
# [4] = target: T1, human CB1 (hCB1) receptor (Homo sapiens, UniProt P21554); assay: THC-induced increase in MAPK phosphorylation, HEK-293 cells transiently transfected with hCB1 (western blot, P-MAPK/MAPK); format: cell-based; conditions: THC 10 μM, 5 min; HEK-293 transiently expressing the hCB1
# T1 construct: expressed in transfected cells; host or cells: HEK-293
# Experimental: The difference in the concentrations of THC used in the two experiments is related to the different efficiency of transfection of hCB1 cDNA plasmid, which is stable in Experiment 1 and transient in Experiment 2.
# MAPK phosphorylation (P-Erk1/2MAPK proteins) was measured by western blot. In experiment 1 the mitochondrial marker CoxIV and in experiment 2 the un-phosphorylated MAPK proteins were used as loading controls. The P-MAPK/CoxIV and P-MAPK/MAPK ratios were calculated and the data expressed as % of vehicle-treated cells.
# [5] = tested on: human chromosome aberration; assay: Human Chromosome Aberration test +/- metabolic activation (GLP); format: cell-based; conditions: highest concentration tested between 74 and 100 μM
# From the text: […].
# [6] = target: OAT3 (Homo sapiens, UniProt Q8TCC7); assay: Cellular transporter inhibition, CHO cells (fluorometry); conditions: 10 μM
# Experimental: (§4) Chinese Hamster Ovary (CHO) were used for all transporters except for P-gp that was studied in Madin-Darby Canine Kidney (MDR1-MDCKII) cells. The inhibition of the activity of each transporter is evaluated by measuring changes in the transport of their specific substrates by fluorometry.
# [7] = Metabolic stability in human liver microsomes (HLM); format: in vitro ADME; conditions: human LM, NADPH
# Experimental: (§1) The investigation was performed on liver microsomes (LM) coming from mouse (MLM), rat (RLM), dog (DLM) and human (HLM).
# (§2) 3pMBP was incubated with liver microsome pools supplemented with NADPH as cofactor. Samples were taken at 5 different times (0, 10, 20, 30 and 60 minutes) and samples were monitored for parent compound disappearance in MRM mode using LC/MS-MS. The Intrinsic Clearance and half-life have been determined. Verapamil was used as reference compound.
# [8] = tested on: testosterone, DHEA and allopregnanolone; assay: Conversion in downstream steroids, rats (GC/MS-MS); format: in vivo; conditions: male and female rats; acute or repeated (28 days) 2, 9 and 36 mg/kg
# Experimental: (§3) In all these studies plasma concentrations of steroids were measured by gas chromatography-tandem mass spectrometry (GC/MS-MS).
# [9] = tested on: testosterone, DHEA and allopregnanolone; assay: Conversion in downstream steroids, dogs (GC/MS-MS); format: in vivo; conditions: male and female dogs; acute or repeated (28 days) 2, 9 and 36 mg/kg
# Experimental: as §3
# [10] = tested on: diet-induced obese (DIO) mouse model; assay: Repeated treatment: food intake and body weight in diet-induced obese (DIO) mice; format: in vivo
# Experimental: Male C57BL/6J mice were fed ad libitum with a high-fat diet (HFD) for 8 weeks before the start of the pharmacological treatments. During pharmacological treatments, the HFD was maintained and food intake and body weight were measured daily. The food consumed was calculated by subtracting the food left in the hoppers from the initial pre-weighted amount. […] 3pMBP and rimonabant were administered by oral gavage once a day, two hours before the start of the dark phase of the light/dark cycle.
# [11] = target: T2, hERG current (Homo sapiens, UniProt Q12809); assay: hERG tail current in stably transfected HEK-293 cells (GLP); format: cell-based; conditions: 100 nM, 1 μM and 10 μM
# T2 construct: expressed in transfected cells; host or cells: HEK-293
# Experimental: E-4031 was used as positive control and was tested in one separate HEK-293 cell to support the validity of the method used.
# Cells were clamped to −80 mV, depolarised to 0 mV for 5 sec allowing activation of hERG current and repolarised to −50 mV for 5 sec allowing hERG tail current to deactivate. This experimental procedure was repeated at a frequency of 0.06 Hz. Currents were filtered at 1 kHz and acquired at the frequency of 2 kHz. Amplitude of hERG tail current was measured during the repolarizing pulse from 0 to −50 mV. […] Currents were measured before and after exposure to the test item.
# [12] = tested on: male Wistar rats; assay: Irwin test and body temperature in rats (GLP); format: in vivo; conditions: 2, 9 and 36 mg/kg, single oral
# Experimental: The study involved 4 groups of 6 male Wistar rats weighing between 154.0 and 185.9 g.
# On study day, animals were firstly scored by the Irwin standardized observation battery and the body temperature was measured. […] Then the Irwin scores as well as measurement of body temperature were performed again at 1, 3, 6, 8 and 24 hours after the administration.
# [13] = target: OAT1 (Homo sapiens, UniProt Q4U2R8); assay: Cellular transporter inhibition, CHO cells (fluorometry); conditions: 10 μM
# Experimental: as §4
# [14] = tested on: CYP1A2; assay: CYP induction (mRNA level); format: in vitro ADME; conditions: 10 nM, 100 nM and 1 μM
# [15] = Metabolic stability in dog liver microsomes (DLM); format: in vitro ADME; conditions: dog LM, NADPH
# Experimental: as §1, §2
# T1 sequence (P21554 whole entry): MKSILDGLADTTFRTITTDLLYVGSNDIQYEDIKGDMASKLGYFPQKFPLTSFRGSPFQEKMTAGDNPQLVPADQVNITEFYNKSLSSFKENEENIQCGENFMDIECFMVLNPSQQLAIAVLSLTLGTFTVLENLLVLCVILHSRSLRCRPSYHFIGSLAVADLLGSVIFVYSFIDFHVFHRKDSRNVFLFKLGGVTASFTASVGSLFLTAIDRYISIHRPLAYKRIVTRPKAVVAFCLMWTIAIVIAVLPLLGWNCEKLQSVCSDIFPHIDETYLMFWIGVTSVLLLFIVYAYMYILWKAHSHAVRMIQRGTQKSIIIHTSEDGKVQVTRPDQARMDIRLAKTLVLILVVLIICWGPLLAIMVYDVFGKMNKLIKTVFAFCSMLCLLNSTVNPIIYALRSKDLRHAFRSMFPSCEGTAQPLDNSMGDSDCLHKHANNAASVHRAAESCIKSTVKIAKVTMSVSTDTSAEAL
# T2 sequence (Q12809 whole entry): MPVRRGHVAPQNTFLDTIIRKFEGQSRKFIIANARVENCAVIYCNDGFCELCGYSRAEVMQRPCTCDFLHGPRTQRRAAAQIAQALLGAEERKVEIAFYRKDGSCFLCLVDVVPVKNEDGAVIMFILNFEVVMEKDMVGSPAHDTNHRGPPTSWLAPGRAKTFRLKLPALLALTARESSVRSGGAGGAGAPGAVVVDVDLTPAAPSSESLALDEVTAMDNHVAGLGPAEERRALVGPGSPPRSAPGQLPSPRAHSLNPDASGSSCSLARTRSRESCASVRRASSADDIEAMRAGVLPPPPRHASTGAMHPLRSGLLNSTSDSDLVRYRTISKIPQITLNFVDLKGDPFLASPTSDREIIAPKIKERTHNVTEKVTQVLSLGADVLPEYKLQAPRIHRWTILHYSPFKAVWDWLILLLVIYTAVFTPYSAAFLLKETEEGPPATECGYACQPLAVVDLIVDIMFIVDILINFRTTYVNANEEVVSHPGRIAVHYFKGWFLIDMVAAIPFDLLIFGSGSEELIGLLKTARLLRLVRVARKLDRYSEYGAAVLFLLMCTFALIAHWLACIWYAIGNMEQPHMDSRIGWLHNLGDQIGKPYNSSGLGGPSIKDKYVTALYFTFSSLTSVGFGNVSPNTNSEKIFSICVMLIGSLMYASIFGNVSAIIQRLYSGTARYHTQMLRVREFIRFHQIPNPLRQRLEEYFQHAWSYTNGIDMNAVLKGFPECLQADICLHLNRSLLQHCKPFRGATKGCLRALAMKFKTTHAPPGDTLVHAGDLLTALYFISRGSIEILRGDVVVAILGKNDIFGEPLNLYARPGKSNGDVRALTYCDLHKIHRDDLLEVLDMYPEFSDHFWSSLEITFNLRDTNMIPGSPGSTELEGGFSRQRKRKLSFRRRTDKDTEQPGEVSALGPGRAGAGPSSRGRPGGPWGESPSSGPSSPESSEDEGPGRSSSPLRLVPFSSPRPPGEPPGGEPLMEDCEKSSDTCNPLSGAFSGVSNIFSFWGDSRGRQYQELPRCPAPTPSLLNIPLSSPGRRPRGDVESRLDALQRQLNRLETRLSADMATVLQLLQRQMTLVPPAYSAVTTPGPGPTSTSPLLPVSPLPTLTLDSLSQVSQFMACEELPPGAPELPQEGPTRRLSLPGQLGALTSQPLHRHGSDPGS
# OAT1, sequence (Q4U2R8 whole entry): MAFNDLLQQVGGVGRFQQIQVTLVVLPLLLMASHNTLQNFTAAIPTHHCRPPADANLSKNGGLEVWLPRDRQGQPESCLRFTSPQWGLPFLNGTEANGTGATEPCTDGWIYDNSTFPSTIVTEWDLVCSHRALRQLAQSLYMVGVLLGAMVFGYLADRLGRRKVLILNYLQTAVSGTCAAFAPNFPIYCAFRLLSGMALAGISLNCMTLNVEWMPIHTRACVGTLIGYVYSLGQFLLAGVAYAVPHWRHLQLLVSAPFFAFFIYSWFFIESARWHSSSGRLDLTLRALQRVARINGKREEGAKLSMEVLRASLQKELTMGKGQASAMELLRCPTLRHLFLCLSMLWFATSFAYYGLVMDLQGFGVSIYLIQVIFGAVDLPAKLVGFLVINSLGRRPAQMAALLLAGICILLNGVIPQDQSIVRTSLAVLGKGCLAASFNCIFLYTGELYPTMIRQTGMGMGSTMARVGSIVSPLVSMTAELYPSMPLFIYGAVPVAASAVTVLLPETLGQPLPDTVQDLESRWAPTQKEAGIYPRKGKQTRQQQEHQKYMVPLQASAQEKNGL
# OAT3, sequence (Q8TCC7 whole entry): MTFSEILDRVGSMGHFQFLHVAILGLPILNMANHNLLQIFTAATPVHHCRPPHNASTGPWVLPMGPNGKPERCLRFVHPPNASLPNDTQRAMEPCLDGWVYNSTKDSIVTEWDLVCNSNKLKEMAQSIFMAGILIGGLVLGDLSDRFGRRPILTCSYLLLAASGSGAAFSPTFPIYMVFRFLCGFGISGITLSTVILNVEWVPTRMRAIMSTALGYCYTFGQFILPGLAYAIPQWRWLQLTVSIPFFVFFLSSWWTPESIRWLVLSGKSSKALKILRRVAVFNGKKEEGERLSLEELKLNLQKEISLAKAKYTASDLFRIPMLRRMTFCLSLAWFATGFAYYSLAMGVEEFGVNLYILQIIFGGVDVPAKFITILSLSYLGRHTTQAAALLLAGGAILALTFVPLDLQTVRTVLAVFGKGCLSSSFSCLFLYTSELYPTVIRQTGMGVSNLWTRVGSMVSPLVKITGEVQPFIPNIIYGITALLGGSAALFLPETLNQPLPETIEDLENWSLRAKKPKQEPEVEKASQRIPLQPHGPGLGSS
smiles,measurement,setting,value
"COc1ccc(CO[C@H]2CC[C@@]3(C)C(=CC[C@H]4[C@@H]5CC[C@H](C(C)=O)[C@@]5(C)CC[C@@H]43)C2)cc1 [3pMBP, 3β-(4-methoxybenzyloxy)pregn-5-en-20-one]",Modification of ligand binding,[1]; 10 μM,did not modify the binding of any of the 85 receptors; also recorded: did not modify the binding of these receptors or of any of the other receptors
same,IC50,"[1]; receptor binding, 85 receptors, read-out: ID50 (the source's name)",> 10 µM
same,Duration of paw tremors,[2],but not 3pMBP (0.15 mg/kg; per os) increases the duration of paw tremors
same,% inhibition,[3],50%
same,ID50,[3],0.005 mg/kg
same,ID100,[3],0.05 mg/kg
same,% inhibition,[4],100%
same,ID100,[4],100 nM
same,Genotoxicity,[5],"did not show any cytotoxicity, genotoxicity and mutagenesis"
same,Activity of OAT3,[6],did not modify the activity
same,half-life,[7],6.83 h
same,microsomal CLint,[7]; read-out: intrinsic clearance,3.38 µL/min/mg
same,"Plasma concentrations of testosterone, DHEA and allopregnanolone",[8],no effect
same,"Plasma concentrations of testosterone, DHEA and allopregnanolone",[9],no effect
same,Inhibition of food-intake and body weight (repeated administration): Effect (3pMBP),"[10]; male mice, highest dose tested 15 mg/kg",at none of the dose tested did modify food intake or body weight and No
same,Food intake in obese mice,"[10]; vs vehicle, Rimo 10 mg/kg ip, 3pMBP 0.005-15 mg/kg per os","but not 3pMBP (0.005, 0.015, 0.05, 5 and 15 mg/kg; per os), decreases food intake"
same,hERG tail currents,[11],did not modify hERG (human ether-ago-go-related gene) tail currents
same,Behavior (Irwin test) and body temperature,[12],did not modify
same,Activity of OAT1,[13],did not modify the activity
same,Expression of CYP1A2,[14],did not increase the expression
same,half-life,[15],0.89 h
same,microsomal CLint,[15]; read-out: intrinsic clearance,26 µL/min/mg

# — patent US12447159B2 (AELIS FARMA, priority 2018, dated 2025)
